Key:
[1] = Sulfate binding constants, average of the UV-vis and NMR titrations, and E,E − Z,Z comparison
Protocol: For absorption titration experiments, a freshly prepared stock solution of 1.5 mM E,E-2PyDIG·HOTf in DMSO-d6 was added to a 1 mm quartz cuvette, and a tetramethylammonium sulfate solution (3.6 mM in DMSO-d6) was added, and the solution was mixed. Absorption spectra were collected after each addition using a UV-Visible spectrophotometer at ca. 24° C. For the Z,Z photoisomer, a freshly prepared 1.5 mM 2PyDIG·HOTf sample was irradiated for 1 hour before titration experiments were prepared and carried out in the same manner as for the E,E isomer.
The binding constants from the three UV-Vis titrations were calculated using commercial software based on the changes in the 2PyDIG^+ absorption maximum value at 315 nm and 320 nm for the E,E and Z,Z photoisomers, respectively. Fitting was performed by assigning the 1:0 and 1:2 PyDIG:sulfate adducts as spectra from before addition of sulfate and after 3 molar equivalents of sulfate, respectively.
For ^1H NMR titrations, a freshly prepared stock solution of 1.5 mM 2PyDIG·HOTf in DMSO-d6 was added to twelve NMR tubes, and a tetramethylammonium sulfate solution (10 mM in DMSO-d6) was added in varying stoichiometric amounts. Clean DMSO-d6 was then added to achieve a final volume of 500 μL. Titrations were performed with both a micropipette and a micrometer syringe. For the Z,Z photoisomer, a freshly prepared 1.5 mM 2PyDIG·HOTf sample was irradiated for 1 hour before the six titration experiments were prepared and carried out in the same manner as for the E,E isomer. To ensure that the PyDIG concentration was not changing as a result of precipitation, dimethylsulfone was added as an internal standard to the 1:2 PyDIG:SO4 solution. It was determined that the concentration of PyDIG remained constant throughout the experiment.
The binding constants from the four ^1H NMR titrations were calculated using commercial software based on the changes in the guanidinium —N—H chemical shifts of the 2PyDIG protons. During fitting, only the monoprotonated 2PyDIG cation was considered, as the Bjerrum pair of 2PyDIG cation and triflate in DMSO was estimated to have a Kassociation value of 156 M−^1. Fitting was performed by locking the 1:0 and 1:2 PyDIG:sulfate adducts at known chemical shift values to reduce the number of adjustable parameters to refine. The corresponding speciation and residual plots for each trial made. Attempts to increase the experimental concentration of 2PyDIG·HOTf higher than 1 mM produced solids, which prevented NMR titrations at higher concentrations.

[2] = Photoirradiation, thermal relaxation and cycling monitored by 1H NMR in DMSO-d6; assay type: physicochemical; conditions: for time to reach thermal equilibrium: 10 mM, photoirradiated
Protocol: In a typical photoirradiation NMR experiment, 3 mL of a freshly made deuterated DMSO solution was placed in a quartz cuvette (1 cm×1 cm×4.5 cm), stirred, and irradiated with UV-visible light using an unfiltered super high-pressure mercury lamp with emissions in the long-wave UV region and in the visible region at the yellow, green, blue, and violet wavelengths (254-800 nm). From the irradiated solution, 500 μL aliquots were removed with a micropipette and transferred to NMR tubes. For studies including excess triflate, a stock solution (200 mM) of tetramethylammonium triflate in DMSO-d6 was added before irradiation to obtain the desired concentration. Experiments were carried out in the same fashion as above. All measurements were obtained on the irradiated solutions within 1 hour of irradiation. ^1H spectra were recorded on a Bruker AvanceIII-400 MHz NMR spectrometer equipped with a 5 mm PABBO probe. The residual solvent signal ((CD3)2SO δH=2.50 ppm) was considered as an internal reference to calibrate spectra and the temperature was held at 24° C. The chemical shifts used to monitor photoisomerization were the set of doublets at 8.67 and 8.80 ppm and triplets at 7.54 and 7.68 ppm for the E,E and Z,Z isomers, respectively. […] The sample underwent hydrolysis back to the aldehyde only under forcing conditions of heating the sample at 50° C. for 2 weeks in water, where the aldehyde proton at 9.86 ppm started to resolve.
Cycling studies were performed by irradiating a freshly prepared, 9.94 mM 2PyDIG·HOTf DMSO-d6 solution in an NMR tube at 24° C. After 6 hour, a ^1H NMR spectrum was collected to determine the photoisomerization value, and the sealed NMR tube was placed in a 50° C. oven. The sample was heated statically for 24 hour, at which point the solution was left to cool at room temperature for approximately 30 min, and a ^1H NMR spectrum was collected to determine the thermal relaxation value. This cycling process was repeated three more times.

[3] = Photoswitching in the absence or presence of sulfate (1H NMR, DMSO-d6); assay type: physicochemical
Protocol: Photoswitching in the presence of sulfate was performed in one of two methods. In the first method, 0.5 mol ratio (sulfate to 2PyDIG^+) tetramethylammonium sulfate was added to a freshly prepared 10 mM E,E-2PyDIG·HOTf in DMSO-d6 solution in a quartz cuvette. After the addition of sulfate, the solution was irradiated with a UV (Hg lamp) light for 2 hours while stirring. The solution was then heated statically for 36 hours, at which point the solution was left to cool at room temperature for approximately 30 minutes, and a ^1H NMR spectrum was collected. In the second method, a freshly prepared 10 mM E,E-2PyDIG·HOTf in DMSO-d6 solution was irradiated with UV (Hg lamp) light for 2 hours while stirring. Following this, tetramethylammonium sulfate was added in either 0.5 or 1.0 mol ratio (sulfate to 2PyDIG^+). The solution was then heated statically for 36 hours, at which point the solution was left to cool at room temperature for approximately 30 minutes, and a ^1H NMR spectrum was collected. ^1H NMR spectra were collected on 500 μL aliquots of the freshly prepared samples, samples after photoirradiation, and samples after thermal treatment at 50° C. for 36 hours.

[4] = Control, no SO4 added, mol ratio 0
[5] = SO4 added after irradiation, mol ratio 0.5
[6] = SO4 added after irradiation, mol ratio 1.0

SMILES: N=C(N/N=C/c1ccccn1)N/N=C/c1ccccn1.O=S(=O)(O)C(F)(F)F [E,E-2PyDIG, bis(2-((E)-pyridin-2-ylmethylene)hydrazineyl)methaniminium trifluoromethanesulfonate]
- log b11, E,E − Z,Z Difference ([1]; Eq. 2, difference of log binding constants of the isomers): 5.40±0.45
- log b21, E,E − Z,Z Difference ([1]; Eq. 3, difference of log binding constants of the isomers): 8.31 ± 0.56
- log b21, E,E Avg Value ([1]; Eq. 3, precision-weighted average of UV-vis and NMR titrations, DMSO-d6, 24° C.): 11.39±0.55
- log b12, E,E − Z,Z Difference ([1]; Eq. 4, difference of log binding constants of the isomers): 7.91 ± 0.76
- log b12 of the 1:2 adduct ([1]; as printed in text with unit, average value of Table 2): 11.91±0.74 M^−1
- log K12, addition of the second sulfate to the 1:1 adduct ([1]; stepwise constant, DMSO-d6): 4.7±1.5
- time required to reach thermal equilibrium ([2]; 1 mM solution, even at elevated temperatures): greater than 20 days
- photoconversion to the Z,Z isomer ([2]; 1.5 mM (low concentration), UV irradiation, DMSO-d6, 24° C.): 95.6±0.4%
- time to reach photoconversion to the Z,Z isomer ([2]; 1.5 mM, UV irradiation): less than 15 min
- Z,Z isomer initially present ([2]; 1.5 mM, before UV irradiation, DMSO-d6): 5.5±0.5%
- percent Z,Z isomer in cycling, after irradiation ([2]; 10 mM in DMSO, 6-hour irradiation): 69%
- percent Z,Z isomer in cycling, after dark equilibration ([2]; 10 mM in DMSO, 24-hour dark equilibration): 25%
- Z,Z isomer at PSS ([2]; 10 mM solution, UV irradiation): 67.7±4.4%
- time to reach PSS ([2]; 10 mM solution, UV irradiation): more than 2 hours
- time to reach thermal equilibrium ([2]; 24° C.): 4 days
- time to reach thermal equilibrium ([2]; 50° C.): less than 24 h
- experimental free energy difference between E,E and Z,Z forms (Eq. 1) ([2]; in the presence of triflate): 0.5 kcal/mol
- equilibrium constant of thermal relaxation back to E,E from Z,Z (Eq. 1) ([2]; independent of temperature): 2.38(8)
- E,E isomer at common thermal equilibrium ([2]; photoirradiated and nonirradiated solutions, thermal relaxation): 70.5±0.9%
- time to thermally equilibrate, unirradiated E,E isomer ([2]; unirradiated, 24° C.): 14 days
- Relative Amount of E,E-2PyDIG+, before irradiation [3, 4]: 97.4 ± 0.6%
- Relative Amount of E,E-2PyDIG+, thermal equilibrium [3, 4]: 70.5 ± 0.9%
- Relative Amount of E,E-2PyDIG+, after irradiation ([3]; Control, no SO4 added, mol ratio 0, PSS): 32.3 ± 4.4%
- Relative Amount of E,E-2PyDIG+, after irradiation [3, 5]: 33.2 ± 5.3%
- Relative Amount of E,E-2PyDIG+, before irradiation [3, 5]: 95.1 ± 1.4%
- Relative Amount of E,E-2PyDIG+, thermal equilibrium [3, 5]: 93.1 ± 3.3%
- Relative Amount of E,E-2PyDIG+, after irradiation [3, 6]: 31.0 ± 4.7%
- Relative Amount of E,E-2PyDIG+, before irradiation [3, 6]: 93.4 ± 2.9%
- Relative Amount of E,E-2PyDIG+, thermal equilibrium [3, 6]: 91.6 ± 1.9%
- Relative Amount of E,E-2PyDIG+, before irradiation ([3]; SO4 added before irradiation, mol ratio 0.5): 91.1 ± 1.2%
- Relative Amount of E,E-2PyDIG+, thermal equilibrium ([3]; SO4 added before irradiation, mol ratio 0.5, 50° C., 36 hours): 91.2 ± 1.4 ^ %
- Relative Amount of E,E-2PyDIG+, thermal equilibrium ([3]; SO4 added before irradiation, mol ratio 0.5, 50° C., 36 hours, listed as 2PyDIG·HOTf): 91.2±1.4%
- Relative Amount of E,E-2PyDIG+, after irradiation ([3]; SO4 added before irradiation, mol ratio 0.5, 2 hours UV): 32.5 ± 3.8 ^ %
- Relative Amount of E,E-2PyDIG+, after irradiation ([3]; SO4 added before irradiation, mol ratio 0.5, 2 hours UV, listed as 2PyDIG·HOTf): 32.5±3.8%
- Relative Amount of E,E-2PyDIG+, before irradiation ([3]; SO4 added before irradiation, mol ratio 0.5, listed as 2PyDIG·HOTf): 92.8±1.4%
- E,E isomer before sulfate addition, before irradiation ([3]; ca. 10 mM 2PyDIG·HOTf in DMSO-d6, before addition of 0.5 mol ratio sulfate): 93.1±1.2%

— patent US12662403B2, “Photoswitchable guanidinium compounds for removal of oxyanions from liquid solutions” (UT-Battelle, LLC, priority 2021, dated 2026)
